The target in the test is Bromodomain-containing protein 4 (Homo sapiens, UniProt O60885). The experiment in a line: Time Resolved Fluorescence Resonance Energy Transfer (TR-FRET) Assay: The binding of compounds to bromodomain BRD4 (44-168), BRD4 (333-460), and BRD4 (1-477 or 44-460) was assessed using a time resolved fluorescent resonance energy transfer binding assay (1), that measures the binding of a fluorescently labeled probe molecule to the bromodomain protein. The bromodomain protein, fluorescent probe molecule (either a biotinylated histone peptide or a fluorescently labeled small molecule), and dose-responded test compound are incubated together to reach thermodynamic equilibrium. In the absence of a test compound, the bromodomain and small molecule are bound, resulting in a high fluorescent signal. In the presence of a sufficient concentration of inhibitor, this intercation is disrupted resulting in a lost of fluorescent resonance energy transfer.All assay components were dissolved in buffer composition 20 mM Hepes pH 7.5, 150 mM NaCl, 5 mM DTT, 0.005% Tween 20, and 100 ug/ml BSA for BRD4 (1-477 and 44-460). The final concentrations of the bromodomain proteins are 1.6 nM BRD4(44-168), 1 nM BRD4(333-460), and 1 nM BRD4(1-477 or 44-460), and the fluorescent probe molecule is 100 nM, 50 nM, and 7.5 nM respectively. All proteins were biotinylated. A streptavidin labeled with terbium cryptate (Cisbio SA-Tb) was used as detection, and pre-mixed with the bromodomain protein at a final concentration of 0.2 nM. In some instances for BRD4 (44-460), anti-His terbium cryptate was used as a detection. 7.5 nl of dose-responded test compound or dmso vehicle (0.0375%) was pre-spotted in a black Corning 384 well plate and 10 ul each of bromodomain/detection reagent and fluorescent small molecule solution were added to the plate, and the reaction incubated for 60 min at room temperature. Plates were then read on EnVision plate reader, (λex=340 nm, acceptor λEm=520 nm, and donor λEm=615 nm, LANCE D400 mirror). Time resolved fluorescnce intensity measurements were made at both emissions, and the ratio of acceptor/donor was calculated and used for data analysis.
The IC50 is the point on the concentration scale where inhibition reaches its midpoint. Regarding `COC1CN(c2ncc(S(C)(=O)=O)c3c2c2ncc(-c4c(C)nnn4C)cc2n3C(c2ccccc2)C2CCC(F)(F)CC2)C1` (stereo not drawn), the IC50 is less than 10 nM.
With `Cc1nnn(C)c1-c1cnc2c3c(NC(C)C)ncc(S(C)(=O)=O)c3n(C(c3ccccc3)C3CCC(F)(F)CC3)c2c1` (stereo not drawn) the figure was less than 10 nM.
Consider `Cc1nnn(C)c1-c1cnc2c3c(OC(C)C)ncc(S(C)(=O)=O)c3n(C(c3ccccc3)C3CCC(F)(F)CC3)c2c1` (stereo not drawn), for which the IC50 was less than 10 nM.
For the compound `COc1nnn(C)c1-c1cnc2c3c(OC)ncc(S(C)(=O)=O)c3n([C@H](c3ccccc3)C3CCOCC3)c2c1`, the IC50 was less than 10 nM.
Under `Cc1nnn(C)c1-c1cnc2c3c(NCC(C)C)ncc(S(C)(=O)=O)c3n(C(c3ccccc3)C3CCC(F)(F)CC3)c2c1` (stereo not drawn) stands less than 10 nM.
Regarding `Cc1nnn(C)c1-c1cnc2c3c(N(C)C(C)C)ncc(S(C)(=O)=O)c3n(C(c3ccccc3)C3CCC(F)(F)CC3)c2c1` (stereo not drawn), the IC50 is less than 10 nM.
With `CNCCN(C)c1ccc2c3ncc(-c4c(C)nnn4C)cc3n(C(c3ccccc3)C3CCC(F)(F)CC3)c2n1` (stereo not drawn) the figure was less than 10 nM; with `Cc1nnn(C)c1-c1cnc2c3ccc(N4CCN(C)CC4)nc3n(C(c3ccccc3)C3CCC(F)(F)CC3)c2c1` (stereo not drawn), less than 1 nM.

(Values after ChEMBL document CHEMBL5726285, “Tricyclic compounds as anticancer agents” (2017).)
